Biological target: Cannabinoid receptor 1 (Homo sapiens, UniProt P21554)
Assay: ChEBML_1680109
Text: Agonist activity at human CB1 receptor expressed in mouse AtT-20 cells co expressing GIRK by FLIPR assay

Cannabinoid receptor 1, sequence (P21554 whole entry): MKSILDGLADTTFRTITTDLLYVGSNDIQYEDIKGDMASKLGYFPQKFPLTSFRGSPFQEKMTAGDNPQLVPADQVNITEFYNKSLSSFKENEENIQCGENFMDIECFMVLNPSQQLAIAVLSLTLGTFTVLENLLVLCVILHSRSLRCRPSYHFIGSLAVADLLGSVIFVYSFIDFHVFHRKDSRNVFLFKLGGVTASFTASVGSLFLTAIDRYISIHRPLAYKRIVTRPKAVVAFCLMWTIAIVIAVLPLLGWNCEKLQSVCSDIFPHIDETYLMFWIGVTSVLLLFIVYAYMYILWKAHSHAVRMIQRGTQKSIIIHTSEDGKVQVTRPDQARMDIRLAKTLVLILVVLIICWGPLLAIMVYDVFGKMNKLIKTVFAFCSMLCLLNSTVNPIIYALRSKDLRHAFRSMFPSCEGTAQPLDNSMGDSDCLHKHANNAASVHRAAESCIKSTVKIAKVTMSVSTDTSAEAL

Q: With `CC(C)[C@H](NC(=O)c1nn(Cc2ccc(F)cc2)c2ccccc12)C(N)=O` as the compound, how does the EC50 read?
A: Its EC50 is 2.1 nM.

— BindingDB's records for doi:10.1021/acs.jmedchem.7b00155 (University of Bari Aldo Moro, 2017)
